Experiments:
[1] = molecular target: T1, ligand-binding domain of RORγ (RORγ-LBD) (Homo sapiens, UniProt P51449); experiment: Inhibitory effect on RORγ-coactivator binding (LanthaScreen TR-FRET RORγ Coactivator Assay); conditions: at 33 μmol/L of the test compound; read-out: RORγ-coactivator binding inhibition rate (%)
T1 construct: purchased Invitrogen
T1 sequence (P51449 269-508 limits assumed): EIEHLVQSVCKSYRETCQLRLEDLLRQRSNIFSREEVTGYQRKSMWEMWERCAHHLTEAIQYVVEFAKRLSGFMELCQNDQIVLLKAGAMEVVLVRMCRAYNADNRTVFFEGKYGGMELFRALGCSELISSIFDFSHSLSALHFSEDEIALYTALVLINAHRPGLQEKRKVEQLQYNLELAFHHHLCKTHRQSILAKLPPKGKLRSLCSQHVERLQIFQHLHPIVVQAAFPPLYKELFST
Description: The inhibitory effect of the cyclic amine derivative (I) or a pharmacologically acceptable salt thereof on the binding between a ligand-binding domain of RORγ (hereinafter referred to as RORγ-LBD) and a coactivator was evaluated using Invitrogen's LanthaScreen™TR-FRET Retinoid-Related Orphan Receptor (ROR) gamma Coactivator Assay kit utilizing time-resolved fluorescence energy transfer (TR-FRET).
The test compound was dissolved in DMSO and diluted with TR-FRET Coregulator Buffer D (Invitrogen) containing 5 mmol/L of DTT to have a final DMSO concentration of 1% before use. To each well of a 384-well black plate (Corning Inc.), 4 nmol/L of GST-fused RORγ-LBD (Invitrogen) diluted with the buffer mentioned above and the test compound were added. A well without addition of the test compound and without addition of GST-fused RORγ-LBD (background) and a well without addition of the test compound and with addition of GST-fused RORγ-LBD (control) were prepared. Next, 150 nmol/L of fluorescein-labeled TRAP220/DRIP-2 (Invitrogen) diluted with the buffer mentioned above and 32 nmol/L of terbium-labeled anti-GST antibody (Invitrogen) were added to each well. After incubating the plate at room temperature for 16 to 24 hours, the fluorescence at 495 nm and 520 nm when excited at 320 nm was measured for each well and the ratio (fluorescence value at 520 nm/fluorescence value at 495 nm) was calculated.
The fold change with addition of the test compound (ratio with addition of the test compound/ratio of the background), the fold change of the control (ratio of the control/ratio of the background), and the fold change of the background (ratio of the background/ratio of the background) were calculated, and then the inhibition rate of binding between RORγ-LBD and a coactivator (hereinafter referred to as RORγ-coactivator binding inhibition rate) (%) was calculated from Formula 1: RORγ-coactivator binding inhibition rate(%)=(1−((Fold change with addition of the test compound)−(Fold change of the background))/((Fold change of the control)−(Fold change of the background)))×100 Formula 1

[2] = system: IL-17 production in mouse splenocytes; experiment: Suppressive effect on IL-17 production by IL-23 stimulation in mouse splenocytes; type: cell-based; conditions: Splenocyte, 72 h, at 5 μmol/L of the test compound, 10 ng/mL human IL-23, 3 days, read-out: IL-17 production inhibition rate (%)
Description: Using mouse splenocytes, the suppressive effect of the cyclic amine derivative (I) or a pharmacologically acceptable salt thereof on IL-17 production by IL-23 stimulation was evaluated by a partially modified method mentioned in The Journal of Biological Chemistry, 2003, Vol. 278, No. 3, p. 1910-1914.
A single cell suspension was prepared from the spleen of C57BL/6J mice (male, 7 to 23 weeks old) (Charles River Laboratories Japan, Inc.) and splenocytes were prepared using Histopaque-1083 (Sigma-Aldrich Japan). The culture medium was used by adding 10% FBS (Gibco), 50 U/mL of penicillin 50 μg/mL of streptomycin (Gibco), 50 μmol/L of 2-mercaptoethanol (Gibco), and 100 U/mL of human IL-2 (Cell Science & Technology Institute, Inc.) to RPMI1640 medium (Gibco). The test compound was dissolved in DMSO and then diluted with the culture medium to have a final concentration of DMSO of 0.1% before use. Splenocytes (3×10^5 cells/well) prepared in the culture medium were seeded in wells of a 96-well flat-bottom plate (Corning Incorporated), the test compound and 10 ng/mL of human IL-23 (R & D systems, Inc.) were added thereto, and the cells were cultured at 37° C. under 5% CO2 for 3 days. A well without addition of human IL-23 and without addition of the test compound and a well with addition of human IL-23 and without addition of the test compound were prepared. After completion of the culture, the culture supernatant was collected and the IL-17 production amount in the supernatant was determined by ELISA method (R & D systems, Inc.).
The IL-17 production inhibition rate (%) was calculated from Formula 2. IL-17 production inhibition rate(%)=(1−((IL-17 production amount with addition of IL-23 and with addition of the test compound)−(IL-17 production amount without addition of IL-23 and without addition of the test compound))/((IL-17 production amount with addition of IL-23 and without addition of the test compound)−(IL-17 production amount without addition of IL-23 and without addition of the test compound)))×100 Formula 2

Row | SMILES | inhibition at 33 µM [1] [%] | inhibition at 5 µM [2] [%]
1 | O=C(Nc1ccc(-c2ccccc2OC(F)(F)F)c(Cl)c1)C1CCCCN1C(=O)CCO (stereo not shown) [Example 42, N-(2-chloro-2′-(trifluoromethoxy)-[1,1′-biphenyl]-4-yl)-1-(3-hydroxypropanoyl)piperidine-2-carboxamide] | 92.8 | 99.8
2 | Cn1cc(C(=O)N2CCCCC2C(=O)Nc2ccc(-c3ccccc3OC(F)(F)F)c(Cl)c2)cn1 (stereo not shown) [Example 46, N-(2-chloro-2′-(trifluoromethoxy)-[1,1′-biphenyl]-4-yl)-1-(1-methyl-1H-pyrazole-4-carbonyl)piperidine-2-carboxamide] | 99.3 | 99.2
3 | NC(=O)N1CCCCC1C(=O)Nc1ccc(-c2ccccc2OC(F)(F)F)c(Cl)c1 (stereo not shown) [Example 17, N^2-(2-chloro-2′-(trifluoromethoxy)-[1,1′-biphenyl]-4-yl)piperidine-1,2-dicarboxamide] | 93.8 | 91.8
4 | NC(=O)N1CCCC[C@@H]1C(=O)Nc1ccc(-c2ccccc2OC(F)(F)F)c(Cl)c1 [Example 22, (R)-N^2-(2-chloro-2′-(trifluoromethoxy)-[1,1′-biphenyl]-4-yl)piperidine-1,2-dicarboxamide] | 92.4 | 98.1
5 | O=CN1CCCCC1C(=O)Nc1ccc(-c2ccccc2OC(F)(F)F)c(Cl)c1 (stereo not shown) [Example 16, N-(2-chloro-2′-(trifluoromethoxy)-[1,1′-biphenyl]-4-yl)-1-formylpiperidine-2-carboxamide] | 99.3 | 98
6 | CSCCC(=O)N1CCCCC1C(=O)Nc1ccc(-c2ccccc2OC(F)(F)F)c(Cl)c1 (stereo not shown) [Example 39, N-(2-chloro-2′-(trifluoromethoxy)-[1,1′-biphenyl]-4-yl)-1-(3-(methylthio)propanoyl)piperidine-2-carboxamide] | 98.8 | 99.2
7 | O=C(Nc1ccc(-c2ccccc2OC(F)(F)F)c(Cl)c1)C1CCCCN1C(=O)CO (stereo not shown) [Example 5, N-(2-chloro-2′-(trifluoromethoxy)-[1,1′-biphenyl]-4-yl)-1-(2-hydroxyacetyl)piperidine-2-carboxamide] | 96.9 | 99.5
8 | O=C(Nc1ccc(-c2ccccc2OC(F)(F)F)c(Cl)c1)C1CCCCN1C(=O)C(F)(F)F (stereo not shown) [Example 2, N-(2-chloro-2′-(trifluoromethoxy)-[1,1′-biphenyl]-4-yl)-1-(2,2,2-trifluoroacetyl)piperidine-2-carboxamide] | 91.9 | 96.2
9 | O=C(Nc1ccc(-c2ccccc2OC(F)(F)F)c(Cl)c1)C1CCCCN1C(=O)COC(F)(F)F (stereo not shown) [Example 8, N-(2-chloro-2′-(trifluoromethoxy)-[1,1′-biphenyl]-4-yl)-1-(2-(trifluoromethoxy)acetyl)piperidine-2-carboxamide] | 95.2 | 99.2
10 | COC(=O)CCC(=O)N1CCCCC1C(=O)Nc1ccc(-c2ccccc2OC(F)(F)F)c(Cl)c1 (stereo not shown) [Example 44, methyl 4-(2-((2-chloro-2′-(trifluoromethoxy)-[1,1′-biphenyl]-4-yl)carbamoyl)piperidin-1-yl)-4-oxobutanoate] | 97.1 | 91.5
11 | CS(=O)(=O)NCCC(=O)N1CCCCC1C(=O)Nc1ccc(-c2ccccc2OC(F)(F)F)c(Cl)c1 (stereo not shown) [Example 32, N-(2-chloro-2′-(trifluoromethoxy)-[1,1′-biphenyl]-4-yl)-1-(3-(methylsulfonamide)propanoyl)piperidine-2-carboxamide] | 94.7 | 98.8
12 | CCN(CC(=O)N1CCCCC1C(=O)Nc1ccc(-c2ccccc2OC(F)(F)F)c(Cl)c1)S(C)(=O)=O (stereo not shown) [Example 37, N-(2-chloro-2′-(trifluoromethoxy)-[1,1′-biphenyl]-4-yl)-1-(2-(N-ethylmethylsulfonamide)acetyl)piperidine-2-carboxamide] | 104 | 99.1
13 | O=C(Nc1ccc(-c2ccccc2OC(F)(F)F)c(Cl)c1)[C@H]1CCCCN1C(=O)CCn1cnnn1 [Example 58, (R)-1-(3-(1H-tetrazol-1-yl)propanoyl)-N-(2-chloro-2′-(trifluoromethoxy)-[1,1′-biphenyl]-4-yl)piperidine-2-carboxamide] | 100 | 99.7
14 | CN(CCC(=O)N1CCCCC1C(=O)Nc1ccc(-c2ccccc2OC(F)(F)F)c(Cl)c1)S(C)(=O)=O (stereo not shown) [Example 36, N-(2-chloro-2′-(trifluoromethoxy)-[1,1′-biphenyl]-4-yl)-1-(3-(N-methylmethylsulfonamide)propanoyl)piperidine-2-carboxamide] | 97.2 | 96.9
15 | Cc1cc(C)n(CC(=O)N2CCCCC2C(=O)Nc2ccc(-c3ccccc3OC(F)(F)F)c(Cl)c2)n1 (stereo not shown) [Example 55, 1-(2-(3,5-dimethyl-1H-pyrazol-1-yl)acetyl)-N-(2-chloro-2′-(trifluoromethoxy)-[1,1′-biphenyl]-4-yl)piperidine-2-carboxamide] | 104 | 99.7
16 | O=C(Nc1ccc(-c2ccccc2OC(F)(F)F)c(Cl)c1)[C@H]1CCCCN1C(=O)CCn1ccnc1 [Example 59, (R)-1-(3-(1H-imidazol-1-yl)propanoyl)-N-(2-chloro-2′-(trifluoromethoxy)-[1,1′-biphenyl]-4-yl)piperidine-2-carboxamide] | 95.5 | 99.8
17 | O=C(Nc1ccc(-c2ccccc2OC(F)(F)F)c(Cl)c1)[C@H]1CCCCN1C(=O)Cn1ccnc1 [Example 65, (R)-1-(2-(1H-imidazol-1-yl)acetyl)-N-(2-chloro-2′-(trifluoromethoxy)-[1,1′-biphenyl]-4-yl)piperidine-2-carboxamide] | 91.7 | 99.6
18 | COCC(=O)N1CCCCC1C(=O)Nc1ccc(-c2ccccc2OC(F)(F)F)c(Cl)c1 (stereo not shown) [Example 4, N-(2-chloro-2′-(trifluoromethoxy)-[1,1′-biphenyl]-4-yl)-1-(2-methoxyacetyl)piperidine-2-carboxamide] | 90.3 | 99.7
19 | Cc1ccn(CCC(=O)N2CCCC[C@@H]2C(=O)Nc2ccc(-c3ccccc3OC(F)(F)F)c(Cl)c2)n1 [Example 60, (R)-1-(3-(3-methyl-1H-pyrazol-1-yl)propanoyl)-N-(2-chloro-2′-(trifluoromethoxy)-[1,1′-biphenyl]-4-yl)piperidine-2-carboxamide] | 93.6 | 99.7
20 | Cc1cc(CC(=O)N2CCCCC2C(=O)Nc2ccc(-c3ccccc3OC(F)(F)F)c(Cl)c2)on1 (stereo not shown) [Example 56, 1-(2-(3-methylisoxazol-5-yl)acetyl)-N-(2-chloro-2′-(trifluoromethoxy)-[1,1′-biphenyl]-4-yl)piperidine-2-carboxamide] | 104 | 107

Source: patent US10364222B2, “Cyclic amine derivative and medical use thereof” (Toray Industries, Inc., priority 2016, dated 2019)
